In patent publication US20230348456A1, “QUINAZOLINONES, PHARMACEUTICAL COMPOSITIONS CONTAINING THE SAME, AND METHODS OF USING THE SAME” (Repare Therapeutics Inc., priority 2022, published 2023) one finds IC50 data, which are given here for 55 molecules.

Sequence of recombinant human Myt1 (Q99640 whole entry): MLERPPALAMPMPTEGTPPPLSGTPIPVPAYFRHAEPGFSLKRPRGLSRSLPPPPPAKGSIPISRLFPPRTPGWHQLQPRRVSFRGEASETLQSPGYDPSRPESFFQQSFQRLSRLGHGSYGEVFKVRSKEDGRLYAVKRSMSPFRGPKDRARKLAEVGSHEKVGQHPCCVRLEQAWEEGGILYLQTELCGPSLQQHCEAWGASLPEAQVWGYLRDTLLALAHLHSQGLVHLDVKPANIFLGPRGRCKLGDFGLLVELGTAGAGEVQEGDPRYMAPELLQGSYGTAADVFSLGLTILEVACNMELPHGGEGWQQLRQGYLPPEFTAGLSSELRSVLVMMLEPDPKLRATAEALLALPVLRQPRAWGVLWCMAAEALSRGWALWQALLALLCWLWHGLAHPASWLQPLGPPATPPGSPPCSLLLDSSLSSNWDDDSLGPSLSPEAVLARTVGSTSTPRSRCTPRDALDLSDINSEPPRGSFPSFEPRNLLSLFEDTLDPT

This assay concerns the target recombinant human Myt1 (Homo sapiens (Human), UniProt Q99640). Nature of the assay: Myt1 enzymatic assay (ADP-Glo kinase assay). The settings on record: recombinant human Myt1 18 nM, ATP 10 μM. The class given is biochemical. Here is the method:
Detection of Myt1 kinase activity utilized a recombinant human Myt1 kinase assay measuring the hydrolysis of ATP using a commercially available ADP-Glo Assay (ADP-Glo™ Kinase Assay from Promega, 10 000 assays, #V9102). Briefly, 5 μL recombinant human Myt1 (full length PKMYT1 recombinant human protein expressed in insect cells from Thermo Fisher #A33387; ˜80% purity) was prepared in reaction buffer (70 mM HEPES, 3 mM MgCl2, 3 mM MnCl2, 50 μg/ml PEG 20000, 3 μM Na-orthovanadate, 1.2 mM DTT) and added to 384 well white polystyrene, flat bottom well, non-treated, microplate (Corning #3572). After this, 5 μL of compounds (diluted in reaction buffer to 0.5% DMSO) was added to the microplate and the plate was spun briefly and incubated at 22° C. for 15 minutes. Ultra-Pure Adenosine Triphosphate (ATP) solution (ADP-Glo kit from Promega) was diluted in reaction buffer and 5 μL was added to the microplate, spun down briefly and incubated for 60 minutes at 30° C. The final Myt1 enzyme concentration was 18 nM and the final ATP concentration was 10 μM. After the 60-minute incubation, 15 μL of ADP-Glo reagent was added and the plate was spun briefly and sealed and incubated in the dark for 40 minutes at 22° C. Following this, 30 μL of kinase detection reagent was added per well and the plate was spun briefly, sealed and incubated for 45-60 minutes at 22° C. in the dark. Luminescence was read using the Envision (250 ms integration). The IC50 and the % max inhibition were calculated for each inhibitor compound tested.
(ADP-Glo turns the ADP formed in a reaction into a luminescent signal.)
As usually defined, the IC50 is the concentration that gives 50% inhibition. As to `CN1CCN(c2ccc(-c3nc4c(Br)cc(-c5cccc6[nH]ncc56)c(N)c4c(=O)[nH]3)cn2)CC1` [Compound 24], the half-maximal inhibitory concentration (IC50) is 10 nM.
With `Nc1c(-c2cccc3[nH]ncc23)cc(Br)c2nc(-c3ccc(N4CCOCC4)nc3)[nH]c(=O)c12` [Compound 25, 5-amino-8-bromo-6-(1H-indazol-4-yl)-2-(6-morpholinopyridin-3-yl)quinazolin-4(3H)-one 2,2,2-trifluoroacetate], the IC50 was 23 nM.
As for `Nc1c(-c2cccc3[nH]ncc23)cc(Br)c2nc(-c3ccc(N4CCN(C5CC5)CC4)nc3)[nH]c(=O)c12` [Compound 26], the IC50 was found to be 5 nM.
Consider `Nc1c(-c2cccc3[nH]ncc23)cc(-c2nccs2)c2nc[nH]c(=O)c12` [Compound 28], for which the IC50 amounted to 4 nM.
For `COCCNc1ccc(-c2nc3c(Br)cc(-c4cccc5[nH]ncc45)c(N)c3c(=O)[nH]2)cn1` [Compound 29] the value was 3 nM.
In the case of `Nc1c(-c2cccc3[nH]ncc23)cc(-c2nccs2)c2nc(-c3ccnc(N4CCNCC4)c3)[nH]c(=O)c12` [Compound 31], the IC50 stood at 15 nM.
The result for `Nc1c(-c2cccc3[nH]ncc23)cc(Br)c2nc(-c3ccc(N4CCC(C(=O)O)CC4)nc3)[nH]c(=O)c12` [Compound 32] reads 6 nM.
With `Nc1c(-c2cccc3[nH]ncc23)cc(-c2nccs2)c2nc(-c3ccncc3)[nH]c(=O)c12` [Compound 33], the IC50 was determined as 9 nM.
For the molecule `Nc1c(-c2cccc3[nH]ncc23)cc(Br)c2nc(-c3ccc(NC4COC4)nc3)[nH]c(=O)c12` [Compound 35], the IC50 came out at 29 nM.
On to `Nc1c(-c2cccc3[nH]ncc23)cc(Br)c2nc(-c3ccc(N4CCN(CCO)CC4)nc3)[nH]c(=O)c12` [Compound 36], for which the IC50 stood at 76 nM.
Regarding `COCCNc1cc(-c2nc3c(Br)cc(-c4cccc5[nH]ncc45)c(N)c3c(=O)[nH]2)ccn1` [Compound 37], the IC50 is 11 nM.
For `CN1CCN(c2cc(-c3nc4c(Br)cc(-c5cccc6[nH]ncc56)c(N)c4c(=O)[nH]3)ccn2)CC1` [Compound 38], the 50% inhibitory concentration (IC50) amounted to 10 nM.
With `Nc1c(-c2cccc3[nH]ncc23)cc(-c2nccs2)c2nc(-c3cccc(CN4CCOCC4)c3)[nH]c(=O)c12` [Compound 40], the IC50 amounted to 18 nM.
On to `Nc1c(-c2cccc3[nH]ncc23)cc(-c2nccs2)c2nc(-c3cccnn3)[nH]c(=O)c12` [Compound 41], for which the IC50 came out at 10 nM.
Regarding `COCc1nc2c(-c3nccs3)cc(-c3cccc4[nH]ncc34)c(N)c2c(=O)[nH]1` [Compound 43], the 50% inhibitory concentration (IC50) amounted to 20 nM.
`Nc1c(-c2cccc3[nH]ncc23)cc(Br)c2nc(-c3ccc(N4CCCCC4CO)nc3)[nH]c(=O)c12` (stereo not shown) [Compound 44]: the IC50 stood at 11 nM.
Regarding `Nc1c(-c2cccc3[nH]ncc23)cc(Br)c2nc(-c3ccc(N4CCC(O)CC4)nc3)[nH]c(=O)c12` [Compound 45], the IC50 worked out at 18 nM.
For `Nc1c(-c2cccc3[nH]ncc23)cc(-c2nccs2)c2nc(Cc3ccccc3)[nH]c(=O)c12` [Compound 46], the IC50 was more than 2000 nM.
With `CC1(O)CCN(c2ccc(-c3nc4c(Br)cc(-c5cccc6[nH]ncc56)c(N)c4c(=O)[nH]3)cn2)CC1` [Compound 47], the IC50 amounted to 11 nM.
The result for `Nc1c(-c2cccc3[nH]ncc23)cc(-c2ccc(F)cc2)c2nc[nH]c(=O)c12` [Compound 48, 5-amino-8-(4-fluorophenyl)-6-(1H-indazol-4-yl) quinazolin-4(3H)-one] reads 30 nM.
The result for `Nc1c(-c2cccc3[nH]ncc23)cc(-c2cccc(C(F)(F)F)c2)c2nc[nH]c(=O)c12` [Compound 49] reads 990 nM.
The result for `Nc1c(-c2cccc3[nH]ncc23)cc(-c2cccc(OCCN3CCOCC3)n2)c2nc(-c3ccncc3)[nH]c(=O)c12` [Compound 50, 5-amino-6-(1H-indazol-4-yl)-8-[6-(2-morpholinoethoxy)-2-pyridyl]-2-(4-pyridyl)-3H-quinazolin-4-one] reads 2 nM.
For the molecule `Cc1ccc2[nH]ncc2c1-c1cc(-c2ccnnc2)c2c(c1N)C(=O)NC2` [Compound 51], the IC50 was 1230 nM.
For `Nc1c(-c2cccc3[nH]ncc23)cc(-c2cccc(OCCN3CCOCC3)c2)c2nc(-c3ccncc3)[nH]c(=O)c12` [Compound 52] the value was 5 nM; for `Nc1c(-c2cccc3[nH]ncc23)cc(-c2cccc(OCCN3CCCC3)n2)c2nc(-c3ccncc3)[nH]c(=O)c12` [Compound 54], 2 nM; for `Nc1c(-c2cccc3[nH]ncc23)cc(-c2cccc(OC[C@@H]3CCCO3)n2)c2nc(-c3ccncc3)[nH]c(=O)c12` [Compound 55], 4 nM.
For `CN1CC=C(c2cc(-c3cccc4[nH]ncc34)c(N)c3c(=O)[nH]c(-c4ccncc4)nc23)CC1` [Compound 56] the value was 7 nM.
For the molecule `CC(=O)N1CC=C(c2cc(-c3cccc4[nH]ncc34)c(N)c3c(=O)[nH]c(-c4ccncc4)nc23)CC1` [Compound 57], the IC50 worked out at 2 nM.
Take `Nc1c(-c2cccc3[nH]ncc23)cc(-c2cnn(C3COC3)c2)c2nc(-c3ccncc3)[nH]c(=O)c12` [Compound 58]: the half-inhibitory concentration (IC50) stood at 1 nM.
For the molecule `CN1CCC(n2cc(-c3cc(-c4cccc5[nH]ncc45)c(N)c4c(=O)[nH]c(-c5ccncc5)nc34)cn2)CC1` [Compound 60], the IC50 worked out at 3 nM.
For the molecule `Cn1ccc(-c2cc(-c3cccc4[nH]ncc34)c(N)c3c(=O)[nH]c(-c4ccncc4)nc23)n1` [Compound 61], the IC50 turned out to be 2 nM.
For `Cc1ccc2[nH]ncc2c1-c1cc(-c2ccc(F)cn2)c2c(c1N)C(=O)NC2` [Compound 62], the IC50 was determined as 539 nM.
Turning to `Cc1ccc2[nH]ncc2c1-c1cc(-c2nccs2)c2c(c1N)C(=O)NC2` [Compound 63], the IC50 is 16 nM.
As to `Nc1c(-c2cccc3[nH]ncc23)cc(C2=CCOCC2)c2nc(-c3ccncc3)[nH]c(=O)c12` [Compound 64], the IC50 was found to be 3 nM.
The result for `Nc1c(-c2cccc3[nH]ncc23)cc(-c2cnn(C3CCOCC3)c2)c2nc(-c3ccncc3)[nH]c(=O)c12` [Compound 67] reads 3 nM; that for `Nc1c(-c2cccc3[nH]ncc23)cc(-c2cnn(CC3CC3)c2)c2nc(-c3ccncc3)[nH]c(=O)c12` [Compound 68], 6 nM; that for `Cc1ccc(O)cc1-c1cc(Br)c2c(c1N)C(=O)NC2` [Compound 69], 864 nM.
The result for `Nc1c(-c2cccc3[nH]ncc23)cc(-c2cccc(OC[C@H]3CCCO3)n2)c2nc(-c3ccncc3)[nH]c(=O)c12` [Compound 70] reads 4 nM; that for `Nc1c(-c2cccc3[nH]ncc23)cc(C2=CCC(F)(F)CC2)c2nc(-c3ccncc3)[nH]c(=O)c12` [Compound 71], 21 nM.
For `Nc1c(-c2cccc3[nH]ncc23)cc(-c2cnn(C3CC3)c2)c2nc(-c3ccncc3)[nH]c(=O)c12` [Compound 72] the value was 3 nM; for `Nc1c(-c2cccc3[nH]ncc23)cc(-c2cnn(C(F)F)c2)c2nc(-c3ccncc3)[nH]c(=O)c12` [Compound 73], 4 nM; for `Nc1c(-c2cccc3[nH]ncc23)cc(-n2ccc(C3CC3)n2)c2nc(-c3cccnc3)[nH]c(=O)c12` [Compound 74, 5-amino-8-(3-cyclopropylpyrazol-1-yl)-6-(1H-indazol-4-yl)-2-(3-pyridyl)-3H-quinazolin-4-one], 11 nM.
Take `Nc1c(-c2cccc3[nH]ncc23)cc(-n2cc(F)cn2)c2nc(-c3cccnc3)[nH]c(=O)c12` [Compound 75]: the IC50 came out at 6 nM.
As to `Nc1c(-c2cccc3[nH]ncc23)cc(-n2ccc(C3CCOCC3)n2)c2nc(-c3cccnc3)[nH]c(=O)c12` [Compound 76], the IC50 was 8 nM.
As to `Nc1c(-c2cccc3[nH]ncc23)cc(-n2cccn2)c2nc(-c3cccnc3)[nH]c(=O)c12` [Compound 79], the IC50 was found to be 3 nM.
For `Nc1c(-c2cccc3[nH]ncc23)cc(-c2cccc(=O)[nH]2)c2nc(-c3cccnc3)[nH]c(=O)c12` [Compound 80], the 50% inhibitory concentration (IC50) is 6 nM.
Take `Nc1c(-c2cccc3[nH]ncc23)cc(-c2cnn(C3CCOCC3)c2)c2nc(-c3cccnc3)[nH]c(=O)c12` [Compound 81]: the IC50 came to 4 nM.
As to `Nc1c(-c2cccc3[nH]ncc23)cc(-c2ccccn2)c2nc[nH]c(=O)c12` [Compound 82], the concentration for half-maximal inhibition (IC50) was determined as 35 nM.
For `Nc1c(-c2cccc3[nH]ncc23)cc(Br)c2nc(-c3ccncc3)[nH]c(=O)c12` [Compound 83] the value was 5 nM; for `Cc1ccc(O)cc1-c1ccc2c(c1N)C(=O)NC2` [Compound 85], 16000 nM; for `Nc1c(-c2cccc3[nH]ncc23)cc(-n2cc3c(n2)CCC3)c2nc(-c3ccncc3)[nH]c(=O)c12` [Compound 86], 18 nM.
Consider `Nc1c(-c2cccc3[nH]ncc23)cc(-n2cc(C(F)(F)F)cn2)c2nc(-c3ccncc3)[nH]c(=O)c12` [Compound 87], for which the half-inhibitory concentration (IC50) came out at 100 nM.
On to `Cc1ccc2[nH]ncc2c1-c1cc(-c2cccc(OCCN3CCOCC3)n2)c2nc[nH]c(=O)c2c1N` [Compound 88], for which the IC50 was 5 nM.
Turning to `Cc1ccc2[nH]ncc2c1-c1cc(-c2cccc(OCCN3CCCC3)n2)c2nc[nH]c(=O)c2c1N` [Compound 89], the 50% inhibitory concentration (IC50) was 13 nM.
For `Cc1ccc2[nH]ncc2c1-c1cc(-c2cccc(OCc3nccn3C)n2)c2nc[nH]c(=O)c2c1N` [Compound 90] the value was 11 nM.
